Assay results: US20060128729A1, “Novel bicyclic heterocyclic compounds, process for their preparation and compositions containing them” (priority 2004, published 2006)
Where a name gives a salt, the structure may show the parent alone.

| SMILES | melting point [°C] |
| --- | --- |
| Cl.Fc1ccc(-c2nc(Nc3cccc(F)c3)c3cnn(-c4ccccc4)c3n2)cc1 | 210 to 213 |
| CCCc1nn(C)c2c(Oc3ccc(F)cc3)nc(-c3ccccc3)nc12 | 126 to 128 |
| CCCc1nn(C)c2c(-c3ccc(O)c(Cl)c3)nc(-c3ccc(F)cc3)nc12 [E 55, 2-chloro-4-[5-(4-fluoro-phenyl)-1-methyl-3-propyl-1H-pyrazolo[4,3-d]pyrimidin-7-yl]-phenol] | 182 to 184 |
| Cc1nn(C)c2c(-c3ccccc3)nc(-c3ccc(F)cc3)nc12 [E 66, 5-(4-fluoro-phenyl)-1,3-dimethyl-7-phenyl-1H-pyrazolo[4,3-d]pyrimidine] | 150 to 152 |
| CCCc1nn(C)c2c(Nc3ccc(OC)c(Cl)c3)nc(-c3cccs3)nc12.Cl | 258 to 260 |
| CCCc1nn(C)c2c(-c3ccc(SC)cc3)nc(-c3ccc(F)cc3)nc12 [E 62, 5-(4-fluoro-phenyl)-1-methyl-7-(4-methylsulfanyl-phenyl)-3-propyl-1H-pyrazolo[4,3-d]pyrimidine] | 114 to 116 |
| CCCc1nn(C)c2c(Nc3ccc4c(c3)OCO4)nc(-c3cccs3)nc12.Cl | 246 to 250 |
| COc1cc(Nc2nc(-c3ccccc3)nc3c(C)nn(C)c23)ccc1Cl.Cl | 222 to 224 |
| CCCc1nn(C)c2c(-c3ccc(OC)c(C)c3)nc(-c3ccccc3)nc12 [E 60, 7-(4-methoxy-3-methyl-phenyl)-1-methyl-5-phenyl-3-propyl-1H-pyrazolo[4,3-d]pyrimidine] | 158 to 160 |
| CCCc1nn(C)c2c(Nc3ccc(O)c(Cl)c3)nc(-c3ccccc3)nc12.Cl | 180 |
| CCCc1nn(C)c2c(-c3ccc(O)c(C)c3)nc(-c3ccc(OC)c(OC)c3)nc12 [E 53, 4-[5-(3,4-dimethoxy-phenyl)-1-methyl-3-propyl-1H-pyrazolo[4,3-d]pyrimidin-7-yl]-2-methyl-phenol] | 198 to 200 |
| CCCc1nn(C)c2c(-n3ccc4cc(Cl)ccc43)nc(-c3ccc(F)cc3)nc12 [E 89] | 146 to 148 |
| CCCc1nn(C)c2c(-n3ccc4ccccc43)nc(-c3ccc(F)cc3)nc12 [E 88, 5-(4-fluoro-phenyl)-7-indol-1-yl-1-methyl-3-propyl-1H-pyrazolo[4,3-d]pyrimidine] | 114 to 116 |
| COc1cc(Nc2nc(-c3cccs3)nc3c(C)nn(C)c23)ccc1Cl.Cl | > 240 |
| CCCc1nn(C)c2c(Nc3ccc4c(c3)OCO4)nc(-c3cccs3)nc12 (as salt: hydrochloride) [E 52, benzo[1,3]dioxol-5-yl-(1-methyl-3-propyl-5-thiophen-2-yl-1H-pyrazolo[4,3-d]pyrimidin-7-yl)-amine hydrochloride] | 246 to 250 |
| Cc1nn(C)c2c(-c3ccc(OC(F)(F)F)cc3)nc(-c3ccc(F)cc3)nc12 [E 101, 5-(4-fluoro-phenyl)-1,3-dimethyl-7-(4-trifluoromethoxy-phenyl)-1H-pyrazolo[4,3-d]pyrimidine] | 170 to 172 |
| CCCc1nn(C)c2c(N3CCC(O)CC3)nc(-c3ccc(OC)c(OC)c3)nc12 [E 20, 1-[5-(3,4-dimethoxy-phenyl)-1-methyl-3-propyl-1H-pyrazolo[4,3-d]pyrimidin-7-yl]-piperidin-4-ol] | 142 to 144 |
| Cc1nn(C)c2c(-n3ccc4ccccc43)nc(-c3ccccc3)nc12 [E 90, 7-indol-1-yl-1,3-dimethyl-5-phenyl-1H-pyrazolo[4,3-d]pyrimidine] | 141 to 143 |
| CCCc1nn(C)c2c(Nc3ccc(O)c(Cl)c3)nc(-c3ccc(F)cc3)nc12.Cl | 200 to 202 |

| SMILES | melting point [°C] |
| --- | --- |
| Cc1nc2cc(Nc3nc(-c4ccccc4)nc4c(C)nn(C)c34)ccc2o1.Cl | 272 to 274 |
| CCCc1nn(C)c2c(C#Cc3ccccc3)nc(-c3ccc(F)cc3)nc12 [E 70, 5-(4-fluoro-phenyl)-1-methyl-7-phenylethynyl-3-propyl-1H-pyrazolo[4,3-d]pyrimidine] | 156 to 158 |
| Cc1nn(C)c2c(-c3ccc4c(c3)OCO4)nc(-c3ccccc3)nc12 [E 65, 7-benzo[1,3]dioxol-5-yl-1,3-dimethyl-5-phenyl-1H-pyrazolo[4,3-d]pyrimidine] | 142 to 144 |
| Cc1nn(C)c2cc(-c3ccc(F)cc3)nc(Nc3ccc(OC(F)(F)F)cc3)c12.Cl | 248 to 250 |
| CCCc1nn(C)c2c(-c3ccc(OC)c(F)c3)nc(-c3ccc(F)cc3)nc12 [E 59, 7-(3-fluoro-4-methoxy-phenyl)-5-(4-fluoro-phenyl)-1-methyl-3-propyl-1H-pyrazolo[4,3-d]pyrimidine] | 174 to 176 |
| CNS(=O)(=O)c1ccc(Nc2nc(-c3ccc(F)cc3)cc3c2c(C)nn3C)cc1.Cl | 293 to 295 |
| Cc1nn(C)c2c(N(C)C)nc(-c3ccccc3)nc12 [E 102, (1,3-dimethyl-5-phenyl-1H-pyrazolo[4,3-d]pyrimidin-7-yl)-dimethyl-amine] | 86 to 88 |
| CCCc1nn(C)c2c(-c3ccc(O)c(C)c3)nc(-c3ccccc3)nc12 [E 57, 2-methyl-4-(1-methyl-5-phenyl-3-propyl-1H-pyrazolo[4,3-d]pyrimidin-7-yl)-phenol] | 204 to 206 |
| CCCc1nn(C)c2c(-c3ccc(OC)c(C)c3)nc(-c3ccc(F)cc3)nc12 [E 58, 5-(4-fluoro-phenyl)-7-(4-methoxy-3-methyl-phenyl)-1-methyl-3-propyl-1H-pyrazolo[4,3-d]pyrimidine] | 136 to 138 |
| Cc1nn(C)c2c(Nc3cccc(F)c3)nc(-c3ccccc3)nc12.Cl | 218 to 220 |
| CCCc1nn(C)c2c(Nc3ccc(Cl)c(OC)c3)nc(-c3ccc(F)cc3)nc12.Cl | 230 to 232 |
| Cc1nn(C)c2cc(-c3ccc(F)cc3)nc(-c3ccc(S(C)(=O)=O)cc3)c12 [E 98, 6-(4-fluoro-phenyl)-4-(4-methanesulfonyl-phenyl)-1,3-dimethyl-1H-pyrazolo[4,3-c]pyridine] | 228 to 230 |
| Cc1nn(C)c2c(F)nc(-c3ccccc3)nc12 [E 99, 7-fluoro-1,3-dimethyl-5-phenyl-1H-pyrazolo[4,3-d]pyrimidine] | 110 to 112 |
| CCCc1nn(C)c2c(-c3ccc(C)cc3)nc(-c3ccc(F)cc3)nc12 [E 63, 5-(4-fluoro-phenyl)-1-methyl-3-propyl-7-p-tolyl-1H-pyrazolo[4,3-d]pyrimidine] | 148 to 150 |
| CCCc1nn(C)c2c(Nc3cccc(C(F)(F)F)c3)nc(-c3ccc(F)cc3)nc12.Cl | 220 to 222 |
| CCCc1nn(C)c2c(Nc3ccc(OC)c(OC)c3)nc(-c3ccc(F)cc3)nc12.Cl | 178 to 181 |
| CC(=O)Nc1cc(Nc2nc(-c3ccc(F)cc3)nc3c(C)nn(C)c23)ccc1O.Cl | 250 to 252 |
| Cl.Fc1ccc(-c2nc(Nc3ccc(OC(F)(F)F)cc3)c3cnn(-c4ccccc4)c3n2)cc1 | 220 to 222 |
| Cc1nn(C)c2c(-c3cccc(S(C)(=O)=O)c3)nc(-c3ccc(F)cc3)nc12 [E 68, 5-(4-fluoro-phenyl)-7-(3-methanesulfonyl-phenyl)-1,3-dimethyl-1H-pyrazolo[4,3-d]pyrimidine] | 176 to 178 |

| SMILES | melting point [°C] |
| --- | --- |
| CCCc1nn(C)c2c(Nc3ccc(F)cc3)nc(-c3ccc(F)cc3)nc12.Cl | 161 to 164 |
| CCCc1nn(C)c2c(Nc3ccc(Cl)c(OC)c3)nc(-c3ccccc3)nc12.Cl | 228 to 230 |
| CCCc1nn(C)c2c(-c3ccc(OC)c(F)c3)nc(-c3ccccc3)nc12 [E 61, 7-(3-fluoro-4-methoxy-phenyl)-1-methyl-5-phenyl-3-propyl-1H-pyrazolo[4,3-d]pyrimidine] | 158 to 160 |
| Cc1nn(C)c2cc(-c3ccc(F)cc3)nc(Nc3ccc(Cl)c(C(F)(F)F)c3)c12.Cl | 223 to 225 |
| CCCc1nn(C)c2c(Nc3ccc(Cl)c(OC)c3)nc(-c3cccs3)nc12.Cl | 200 to 204 |
| Cc1nn(C)c2c(-c3cccc(S(C)(=O)=O)c3)nc(-c3ccccc3)nc12 [E 67, 7-(3-methanesulfonyl-phenyl)-1,3-dimethyl-5-phenyl-1H-pyrazolo[4,3-d]pyrimidine] | 210 to 212 |
| Cc1nn(C)c2cc(-c3ccc(F)cc3)nc(Nc3ccc(Cl)nc3)c12.Cl | 215 to 218 |
| Cc1nn(C)c2c(Nc3ccc(O)c(Cl)c3)nc(-c3ccc(F)cc3)nc12.Cl | 238 to 240 |
| Cc1nn(C)c2cc(-c3ccc(F)cc3)nc(Nc3cccc(C(F)(F)F)c3)c12.Cl | 220 to 222 |
| CCCc1nn(C)c2c(Nc3ccc(OC)c(F)c3)nc(C(F)(F)F)nc12.Cl | 136 to 138 |
| Cc1nn(C)c2cc(-c3ccc(F)cc3)nc(-c3cccc(S(C)(=O)=O)c3)c12 [E 93, 6-(4-fluoro-phenyl)-4-(3-methanesulfonyl-phenyl)-1,3-dimethyl-1H-pyrazolo[4,3-c]pyridine] | 186 to 188 |
| CCCc1nn(C)c2c(-c3ccc(O)c(C)c3)nc(-c3ccc(OC)c(O)c3)nc12 [E 54, 4-[5-(3-hydroxy,4-methoxy-phenyl)-1-methyl-3-propyl-1H-pyrazolo[4,3-d]pyrimidin-7-yl]-2-methyl-phenol] | 180 to 182 |
| CCCc1nn(C)c2c(-c3ccc(S(C)(=O)=O)cc3)nc(-c3ccc(F)cc3)nc12 [E 69, 5-(4-fluoro-phenyl)-7-(4-methanesulfonyl-phenyl)-1-methyl-3-propyl-1H-pyrazolo[4,3-d]pyrimidine] | 208 to 210 |
| Cc1nn(C)c2cc(-c3ccc(F)cc3)nc(-c3ccc(OC(F)(F)F)cc3)c12 [E 94, 6-(4-fluoro-phenyl)-1,3-dimethyl-4-(4-trifluoromethoxy-phenyl)-1H-pyrazolo[4,3-c]pyridine] | 92 to 94 |
| CCCc1nn(C)c2c(-c3ccccc3)nc(-c3ccc(F)cc3)nc12 [E 64, 5-(4-fluoro-phenyl)-1-methyl-7-phenyl-3-propyl-1H-pyrazolo[4,3-d]pyrimidine] | 115 to 118 |
| Cc1nn(C)c2c(Nc3ccc(C(N)=O)cc3)nc(-c3ccc(F)cc3)nc12.Cl | 272 to 274 |
| CCCc1nn(C)c2c(Nc3ccc(O)c(F)c3)nc(-c3ccc(F)cc3)nc12.Cl | 161 to 162 |
| CCCc1nn(C)c2c(Nc3ccc(OC)c(F)c3)nc(-c3ccccc3OCC)nc12.Cl | 194 to 196 |
